{
  "source": "patent US20240285644A1",
  "about": "“ASSESSING AND TREATING PROSTATE CANCER” (Mayo Foundation for Medical Education and Research, priority 2021, published 2024)",
  "key": {"LNCaP cells": {"tested_on": "LNCaP cells", "assay": "Quantitative colony forming assay, cell survival of antiandrogen-sensitive LNCaP cells", "assay_type": "cell-based", "conditions": "for cell survival of LNCaP cells: increasing concentrations of recombinant human NRG-1, vehicle versus enzalutamide (3 μM)", "text": "It was next examined whether NRG-1 polypeptides differentially affect antiandrogen-sensitive and resistant prostate cancer cells. Antiandrogen-sensitive LNCaP prostate cancer cells express androgen receptor, whereas antiandrogen-resistant Du145 and PC3 cells express very limited androgen receptor (FIG. 3A).\nThe paradoxical toxic and salutary effects of NRG-1 polypeptides on antiandrogen-sensitive versus antiandrogen-resistant cells mirrors the outcomes in CSPC and CRPC patients, respectively.\nLNCaP cells were then transfected with control shRNA versus shRNA targeting HER3 (FIG. 8A). Knockdown of HER3 rescued LNCaP cells from NRG-1- and enzalutamide-induced cell death (FIG. 7D and FIG. 8B). Relatedly, knockdown of HER2—but not HER4—reduces or eliminates Du145 cell benefit from NRG-1 polypeptide treatment (FIG. 8C-8D). To further confirm that HER2/HER3 heterodimerization can mediate a pro-survival response to NRG-1 polypeptides in CRPC, LNCaP cells were treated with lapatinib that induces HER2/HER3 heterodimerization."}, "NRG-1": {"tested_on": "NRG-1", "assay": "Blood levels of NRG-1 in patients with cancer before and during PARP inhibitor treatment", "assay_type": "in vivo, human", "conditions": "two patients with cancer (001 niraparib, 002 olaparib), Day 0 versus Days 7, 14", "procedure": "Blood levels of NRG-1 of five patients with cancer were measured prior to and during treatment with PARP inhibitors."}},
  "note": "Entries after “also recorded” stand apart in the source; their conditions may differ.",
  "data": [
    {"smiles": "CNC(=O)c1ccc(N2C(=S)N(c3ccc(C#N)c(C(F)(F)F)c3)C(=O)C2(C)C)cc1F", "note": "[enzalutamide]", "values": [
      {"measurement": "cell survival of LNCaP cells", "setting": "LNCaP cells", "value": "function in an additive manner"},
      {"measurement": "cell survival of LNCaP cells", "setting": "LNCaP cells; listed as Enz", "value": "induced death of LNCaP cells in an additive fashion"}
    ]},
    {"smiles": "CS(=O)(=O)CCNCc1ccc(-c2ccc3ncnc(Nc4ccc(OCc5cccc(F)c5)c(Cl)c4)c3c2)o1", "note": "[lapatinib]", "values": [
      {"measurement": "effect of pre-treatment on NRG-1- and antiandrogen-mediated death of LNCaP cells", "setting": "LNCaP cells; pre-treatment with lapatinib, then NRG-1 and enzalutamide", "value": "rescues LNCaP cells from antiandrogen enzalutamide and NRG-1; also recorded: abolished NRG-1- and antiandrogen-mediated cell death"}
    ]},
    {"smiles": "NC(=O)c1cccc2cn(-c3ccc([C@@H]4CCCNC4)cc3)nc12", "note": "[niraparib]", "values": [
      {"measurement": "blood levels of NRG-1", "setting": "NRG-1", "value": "reduced over the course of treatment"}
    ]},
    {"smiles": "O=C(c1cc(Cc2n[nH]c(=O)c3ccccc23)ccc1F)N1CCN(C(=O)C2CC2)CC1", "note": "[olaparib]", "values": [
      {"measurement": "blood levels of NRG-1", "setting": "NRG-1", "value": "reduced over the course of treatment"},
      {"measurement": "blood levels of NRG-1", "setting": "NRG-1; listed as Olaparib", "value": "reduced"}
    ]}
  ]
}
